Like-named read-outs stand apart in the source and are kept apart here.
How the values were obtained:
cyclin D1/cdk 4 enzyme = target: T1, cyclin D1/cdk 4 enzyme (Homo sapiens, UniProt P11802); assay: CDK4 ELISA kinase assay (phospho-Rb ser 795 detection); format: biochemical
T1 construct: made in house; host or cells: Sf9 insect cells, recombinant baculovirus
Procedure, shortened: (§1)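 Inhibition was derived from A450 relative to control wells lacking compound, following an anti-phospho-Rb Ser795 sandwich of HRP detection. The reactions combined coated GST-Rb fragment, 200 μM ATP and baculovirus-expressed cyclin/CDK enzymes, incubated for 1 h at 30° C.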

cyclin E/CDK2 enzyme = target: T2, cyclin E/CDK2 enzyme (Homo sapiens, UniProt P24941); assay: CDK2 ELISA kinase assay (phospho-Rb ser 795 detection); format: biochemical
T2 construct: made in house; host or cells: Sf9 insect cells, recombinant baculovirus
Procedure, shortened: as §1

cyclin B/CDK1 enzyme = target: T3, cyclin B/CDK1 enzyme (Homo sapiens, UniProt P06493); assay: CDK1 ELISA kinase assay (phospho-Rb ser 795 detection); format: biochemical
T3 construct: purchased New England BioLabs; host or cells: Sf9 insect cells, recombinant baculovirus
Procedure, shortened: as §1

BT474 = assay: Cytotoxicity assay (SRB), BT474; format: cell-based; details: Homo sapiens, BT-474, 144 h, read-out: In Vitro Cellular Activity IC50 BT474
Procedure, shortened: (§2)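 Plate cells, let them attach overnight, add compound dilutions in RPMI 1640/5% FBS, and incubate 3 days (BT474 6 days). Then fix with TCA, stain with SRB, dissolve the dye in Tris and read at 540 nm.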

HCT-116 = assay: Cytotoxicity assay (SRB), HCT-116; format: cell-based; details: Homo sapiens, HCT-116, 72 h, read-out: In Vitro Cellular Activity IC50 HCT116
Procedure, shortened: as §2

LoVo = assay: Cytotoxicity assay (SRB), LoVo; format: cell-based; details: Homo sapiens, LoVo, 72 h, read-out: In Vitro Cellular Activity IC50 LOVO
Procedure, shortened: as §2

MCF-7 = assay: Cytotoxicity assay (SRB), MCF-7; format: cell-based; details: Homo sapiens, MCF7, 72 h, read-out: In Vitro Cellular Activity IC50 MCF-7
Procedure, shortened: as §2

[1] = In Vitro Enzyme Assay, cyclin D1/cdk 4, read-out: CDK4 IC50
[2] = In Vitro Enzyme Assay, cyclin E/CDK2, read-out: CDK2 IC50
[3] = In Vitro Enzyme Assay, cyclin B/CDK1, read-out: CDK1 IC50
[4] = In Vitro Enzyme Assays, 200 μM ATP, read-out: CDK4 IC50
[5] = In Vitro Enzyme Assays, read-out: CDK2 IC50
[6] = In Vitro Enzyme Assays, read-out: CDK1 IC50

T3 sequence (P06493 whole entry): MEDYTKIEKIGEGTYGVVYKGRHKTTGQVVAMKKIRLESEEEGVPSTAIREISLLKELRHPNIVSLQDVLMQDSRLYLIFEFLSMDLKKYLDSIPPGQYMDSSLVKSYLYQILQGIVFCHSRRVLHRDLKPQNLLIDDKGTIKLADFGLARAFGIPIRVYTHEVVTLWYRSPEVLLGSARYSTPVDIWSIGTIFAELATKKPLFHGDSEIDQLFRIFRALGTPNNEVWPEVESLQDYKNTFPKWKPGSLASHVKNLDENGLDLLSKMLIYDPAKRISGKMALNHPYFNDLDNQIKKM
T3 sequence (P14635 whole entry partner): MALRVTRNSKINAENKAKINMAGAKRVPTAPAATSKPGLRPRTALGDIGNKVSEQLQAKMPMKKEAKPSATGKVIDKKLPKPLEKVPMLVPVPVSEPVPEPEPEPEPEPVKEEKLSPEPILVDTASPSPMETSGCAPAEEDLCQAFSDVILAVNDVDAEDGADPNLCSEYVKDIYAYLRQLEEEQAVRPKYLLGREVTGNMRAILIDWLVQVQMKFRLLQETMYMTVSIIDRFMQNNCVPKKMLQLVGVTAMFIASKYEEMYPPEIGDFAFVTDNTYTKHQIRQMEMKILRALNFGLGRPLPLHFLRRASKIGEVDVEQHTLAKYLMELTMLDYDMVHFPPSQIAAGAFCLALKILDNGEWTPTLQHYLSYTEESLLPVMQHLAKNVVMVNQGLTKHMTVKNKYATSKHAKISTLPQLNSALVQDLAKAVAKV
T1 sequence (P11802 whole entry, species assumed): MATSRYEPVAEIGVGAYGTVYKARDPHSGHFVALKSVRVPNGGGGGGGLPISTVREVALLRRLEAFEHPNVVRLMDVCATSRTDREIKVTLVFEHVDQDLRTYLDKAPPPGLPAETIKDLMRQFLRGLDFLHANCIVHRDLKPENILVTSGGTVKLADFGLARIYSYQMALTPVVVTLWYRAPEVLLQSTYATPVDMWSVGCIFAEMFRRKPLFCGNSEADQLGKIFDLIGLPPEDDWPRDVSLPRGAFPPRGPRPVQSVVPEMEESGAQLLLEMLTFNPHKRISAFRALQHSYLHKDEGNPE
T1 sequence (P24385 whole entry partner, species assumed): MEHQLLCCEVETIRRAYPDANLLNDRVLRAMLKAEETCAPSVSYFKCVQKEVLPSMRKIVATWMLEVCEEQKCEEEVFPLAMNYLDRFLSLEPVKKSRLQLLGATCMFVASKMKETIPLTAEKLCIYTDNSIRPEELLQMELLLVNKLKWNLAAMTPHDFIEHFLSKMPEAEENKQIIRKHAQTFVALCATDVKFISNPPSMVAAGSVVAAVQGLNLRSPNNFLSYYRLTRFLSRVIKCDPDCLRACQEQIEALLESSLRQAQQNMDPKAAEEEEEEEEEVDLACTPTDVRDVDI

| Structure (SMILES) | IC50 (cyclin D1/cdk 4 enzyme; [1]) | IC50 (cyclin E/CDK2 enzyme; [2]) | IC50 (cyclin B/CDK1 enzyme; [3]) | IC50 (BT474; BT474 cells, 6 days, SRB) | IC50 (HCT-116; HCT116 cells, 3 days, SRB) | IC50 (LoVo; LoVo cells, 3 days, SRB) | IC50 (MCF-7; MCF-7 cells, 3 days, SRB) | melting point | IC50 (cyclin D1/cdk 4 enzyme; [4]) | IC50 (cyclin E/CDK2 enzyme; [5]) | IC50 (cyclin B/CDK1 enzyme; [6]) | IC50 (BT474; BT474 cells, SRB, 6 days) | IC50 (HCT-116; HCT116 cells, SRB, three days) | IC50 (LoVo; LoVo cells, SRB, three days) | IC50 (MCF-7; MCF-7 cells, SRB, three days) | IC50 (BT474) | IC50 (HCT-116) | IC50 (LoVo) | IC50 (MCF-7) |
| --- | --- | --- | --- | --- | --- | --- | --- | --- | --- | --- | --- | --- | --- | --- | --- | --- | --- | --- | --- |
| CN(C)C1CCN(Cc2ccc(N/C=C3\C(=O)NC(=O)c4ccc(-c5ccc(F)cc5)cc43)cc2)C1 (centres unmarked) [Example 512, (4Z)-4-{[(4-{[3-(Dimethylamino)pyrrolidin-1-yl]methyl}phenyl)amino]methylene}-6-(4-fluorophenyl)isoquinoline-1,3(2H,4H)-dione] | 0.2 µM | > 50 µM | > 50 µM | 2.36 µM | 1.19 µM | 3.05 µM | 2.7 µM | 95 to 96 °C | – | – | – | – | – | – | – | – | – | – | – |
| CN1CCCC1c1ccc(N/C=C2\C(=O)NC(=O)c3ccc(I)cc32)nc1 (centres unmarked) [Example 460, (Z)-6-Iodo-4-((5-(1-methylpyrrolidin-2-yl)pyridin-2-ylamino)methylene)isoquinoline-1,3(2H,4H)-dione] | 18.3 µM | > 50 µM | > 50 µM | 10 µM | 8.3 µM | 9.4 µM | 10.3 µM | 174 to 206 °C (dec.) | – | – | – | – | – | – | – | – | – | – | – |
| CC1CCCN1Cc1ccc(N/C=C2\C(=O)NC(=O)c3ccc(I)cc32)cc1 (centres unmarked) [Example 138, (4Z)-6-Iodo-4-[({4-[(2-methylpyrrolidin-1-yl)methyl]phenyl}amino)methylene]isoquinoline-1,3(2H,4H)-dione] | – | – | – | – | – | – | – | 157 to 158 °C | 0.14 µM | > 50 µM | > 50 µM | 0.41 µM | 3.7 µM | 4.9 µM | 1.2 µM | – | – | – | – |
| C[C@@H]1CN(c2ccc(N/C=C3\C(=O)NC(=O)c4ccc(-c5ccoc5)cc43)nc2)C[C@H](C)N1 [Example 468, (4Z)-4-[({5-[(3R,5S)-3,5-Dimethylpiperazin-1-yl]pyridin-2-yl}amino)methylene]-6-(3-furyl)isoquinoline-1,3(2H,4H)-dione] | 0.17 µM | > 50 µM | > 50 µM | 2.1 µM | 1.1 µM | 1.6 µM | 1.5 µM | 230 to 231 °C | – | – | – | – | – | – | – | – | – | – | – |
| CN1CCN(c2ccc(N/C=C3\C(=O)NC(=O)c4ccc(-c5ccc(-c6cccs6)s5)cc43)cc2)CC1 [Example 182, (4Z)-6-(2,2′-Bithien-5-yl)-4-({[4-(4-methylpiperazin-1-yl)phenyl]amino}methylene)-isoquinoline-1,3(2H,4H)-dione] | – | – | – | – | – | – | – | 204 to 205 °C | 2.3 µM | > 50 µM | 2.3 µM | – | – | – | – | 17 µM | > 50 µM | > 50 µM | > 50 µM |
| C[C@@H]1CN(c2ccc(N/C=C3\C(=O)NC(=O)c4ccc(Br)cc43)cc2)C[C@H](C)N1C [Example 240, (4Z)-6-Bromo-4-[({4-[(3R,5S)-3,4,5-trimethylpiperazin-1-yl]phenyl}amino)methylene]-isoquinoline-1,3(2H,4H)-dione] | – | – | – | – | – | – | – | 213 to 214 °C | 17.3 µM | > 50 µM | > 50 µM | 3.1 µM | 2.7 µM | 3.7 µM | 2 µM | – | – | – | – |
| COc1cc(CN/C=C2\C(=O)NC(=O)c3ccc(-c4ccsc4)cc32)cc(O)c1OC [Example 85] | – | – | – | – | – | – | – | 255 to 256 °C | 0.001 µM | > 50 µM | > 50 µM | 3.5 µM | 3.7 µM | 2.7 µM | 8.4 µM | – | – | – | – |
| CC1CCCN1Cc1ccc(N/C=C2\C(=O)NC(=O)c3ccc(-c4ccoc4)cc32)cc1 (centres unmarked) [Example 291, (4Z)-6-(3-Furyl)-4-[({4-[(2-methylpyrrolidin-1-yl)methyl]phenyl}amino)methylene]-isoquinoline-1,3(2H,4H)-dione] | – | – | – | – | – | – | – | 165 to 166 °C | 0.19 µM | > 50 µM | > 50 µM | 1 µM | 2.3 µM | 1.9 µM | 0.59 µM | – | – | – | – |
| O=C1NC(=O)c2ccc(-n3cccc3)cc2C1=CNCc1cc(=O)c(O)co1 [Example 312, 4-{[(5-Hydroxy-4-oxo-4H-pyran-2-ylmethyl)-amino]-methylene}-6-pyrrol-1-yl-4H-isoquinoline-1,3-dione] | – | – | – | – | – | – | – | 310 to 312 °C (dec.) | 0.27 µM | 21.6 µM | > 50 µM | 39 µM | > 50 µM | > 50 µM | > 50 µM | – | – | – | – |
| O=C1NC(=O)c2ccc(I)cc2/C1=C/Nc1ccc(CN2CCC(O)CC2)cc1 [Example 440, (4Z)-4-[({4-[(4-Hydroxypiperidin-1-yl)methyl]phenyl}amino)methylene]-6-iodoisoquinoline-1,3(2H,4H)-dione] | – | – | – | 1.6 µM | 3.2 µM | 4 µM | 1.6 µM | 255 to 256 °C | 0.35 µM | 19.3 µM | 27.7 µM | – | – | – | – | – | – | – | – |
| CN(C)C1CCN(Cc2ccc(N/C=C3\C(=O)NC(=O)c4ccc(I)cc43)cc2)C1 (centres unmarked) [Example 422, (4Z)-4-{[(4-{[3-(Dimethylamino)pyrrolidin-1-yl]methyl}phenyl)amino]methylene}-6-iodoisoquinoline-1,3(2H,4H)-dione] | – | – | – | 3.7 µM | 2 µM | 3.8 µM | 5.6 µM | 134 to 135 °C | 0.29 µM | > 50 µM | > 50 µM | – | – | – | – | – | – | – | – |
| COC1CCN(Cc2ccc(N/C=C3\C(=O)NC(=O)c4ccc(I)cc43)cc2)CC1 [Example 394, (4Z)-6-Iodo-4-[({4-[(4-methoxypiperidin-1-yl)methyl]phenyl}amino)methylene]isoquinoline-1,3(2H,4H)-dione] | – | – | – | 4.03 µM | 3.7 µM | 3.7 µM | 2.6 µM | 199 to 200 °C | 0.21 µM | > 50 µM | > 50 µM | – | – | – | – | – | – | – | – |
| O=C1NC(=O)c2ccc(Br)cc2/C1=C/Nc1ccc(N2CCC(N3CCCC3)CC2)c(F)c1 [Example 405, (4Z)-6-Bromo-4-({[3-fluoro-4-(4-pyrrolidin-1-ylpiperidin-1-yl)phenyl]amino}-methylene)-isoquinoline-1,3(2H,4H)-dione] | – | – | – | 3.1 µM | 1.7 µM | 2 µM | 5.6 µM | 204 to 205 °C | 1.8 µM | > 50 µM | > 50 µM | – | – | – | – | – | – | – | – |
| O=C1NC(=O)c2ccc(Br)cc2/C1=C/Nc1ccc(N2CCC(N3CCCC3)CC2)nc1 [Example 407, (4Z)-6-Bromo-4-({[6-(4-pyrrolidin-1-ylpiperidin-1-yl)pyridin-3-yl]amino}methylene)isoquinoline-1,3(2H,4H)-dione] | – | – | – | 10.2 µM | 3.8 µM | 8.5 µM | 9.7 µM | 214 to 215 °C | 1.6 µM | > 50 µM | > 50 µM | – | – | – | – | – | – | – | – |
| CCCOc1ccc(CN/C=C2\C(=O)NC(=O)c3ccc(-c4ccc(F)cc4)cc32)cc1O [Example 192, (4Z)-6-(4-Fluorophenyl)-4-{[(3-hydroxy-4-propoxybenzyl)amino]methylene}-isoquinoline-1,3(2H,4H)-dione] | – | – | – | – | – | – | – | 194 to 195 °C | 0.04 µM | > 50 µM | > 50 µM | 16 µM | 6.8 µM | 40 µM | 2.4 µM | – | – | – | – |
| O=C1NC(=O)c2ccc(-c3ccsc3)cc2/C1=C/Nc1cc(F)c(N2CCN3CCC[C@H]3C2)c(F)c1 [Example 371, (4Z)-4-[({3,5-Difluoro-4-[(8aS)-hexahydropyrrolo[1,2-a]pyrazin-2(1H)-yl]phenyl}amino)-methylene]-6-thien-3-ylisoquinoline-1,3(2H,4H)-dione] | – | – | – | – | – | – | – | 190 to 191 °C | 0.1 µM | > 50 µM | > 50 µM | 3.1 µM | 1.1 µM | 2.8 µM | 4.1 µM | – | – | – | – |

Source: patent US7713994B2 (Wyeth LLC, priority 2005, dated 2010)
